In ChEMBL document CHEMBL1914426, “Phospshoinositide 3-kinase (PI3K)/mammalian target of rapamycin (mTOR) dual inhibitors: discovery and structure-activity relationships of a series of quinoline and quinoxaline derivatives” (J Med Chem, 2011):

How the values were obtained:
[1] = AUC in Sprague-Dawley rat at 1 mg/kg, po; assay type: ADME, organism-based; parameters: dose 1 mg/kg, route oral; conditions: plasma
Mus musculus [2] = organism: Mus musculus; assay: animal or person; conditions: CD1, po, 3 h, read-out: INH
in vivo [3] = conditions: Sprague-Dawley, rat, iv, 1 mg/kg
Description: (§1) Volume of distribution at steady-state in Sprague-Dawley rat at 1 mg/kg, iv

[4] = biological target: Phosphatidylinositol 3-kinase catalytic subunit type 3 (Homo sapiens, UniProt Q8NEB9)
Phosphatidylinositol 3-kinase catalytic subunit type 3, sequence (Q8NEB9 whole entry): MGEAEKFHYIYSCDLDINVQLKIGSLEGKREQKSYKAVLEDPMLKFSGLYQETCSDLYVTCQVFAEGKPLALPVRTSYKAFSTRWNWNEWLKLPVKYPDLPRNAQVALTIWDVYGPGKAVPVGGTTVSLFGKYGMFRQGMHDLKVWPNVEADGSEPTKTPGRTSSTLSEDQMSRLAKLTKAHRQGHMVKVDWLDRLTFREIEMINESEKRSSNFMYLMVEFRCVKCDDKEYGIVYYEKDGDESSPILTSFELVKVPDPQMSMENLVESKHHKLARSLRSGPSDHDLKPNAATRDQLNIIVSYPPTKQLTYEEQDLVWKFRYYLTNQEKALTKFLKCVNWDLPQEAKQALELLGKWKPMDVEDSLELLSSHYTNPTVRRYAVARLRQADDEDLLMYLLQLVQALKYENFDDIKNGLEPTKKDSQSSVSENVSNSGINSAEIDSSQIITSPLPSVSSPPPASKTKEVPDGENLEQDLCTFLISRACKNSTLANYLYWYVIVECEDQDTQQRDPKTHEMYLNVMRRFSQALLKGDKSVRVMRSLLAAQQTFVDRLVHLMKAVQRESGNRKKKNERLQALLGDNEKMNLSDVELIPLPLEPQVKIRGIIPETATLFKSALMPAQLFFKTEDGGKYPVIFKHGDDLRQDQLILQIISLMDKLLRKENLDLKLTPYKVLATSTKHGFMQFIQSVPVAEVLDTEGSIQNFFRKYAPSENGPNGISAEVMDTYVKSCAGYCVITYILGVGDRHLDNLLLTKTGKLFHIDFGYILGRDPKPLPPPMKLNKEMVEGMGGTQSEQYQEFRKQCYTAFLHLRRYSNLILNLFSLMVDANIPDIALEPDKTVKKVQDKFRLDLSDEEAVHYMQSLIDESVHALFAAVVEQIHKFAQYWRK
Description: Inhibition of human VPS34 assessed as ADP formation using ATP by fluorescence-based immunoassay

in vivo [5] = conditions: nude CD1, mouse, plasma, po, 1 mg/kg
Description: Plasma concentration in nude CD1 mouse at 1 mg/kg, po measured after 3 hrs

in vivo [6] = conditions: Sprague-Dawley, rat, iv, 1 mg/kg; remark: listed apart in the source
Description: (§2) Clearance in Sprague-Dawley rat at 1 mg/kg, iv

[7] = Oral bioavailability in Sprague-Dawley rat at 1 mg/kg; assay type: ADME, organism-based; conditions: in vivo
in vitro [8] = conditions: human, liver microsomes
Description: Clearance in human liver microsomes assessed as compound remaining at 1 uM after 30 mins

[9] = biological target: Phosphatidylinositol 4,5-bisphosphate 3-kinase catalytic subunit beta isoform (Homo sapiens, UniProt P42338)
Phosphatidylinositol 4,5-bisphosphate 3-kinase catalytic subunit beta isoform, sequence (P42338 whole entry, canonical isoform): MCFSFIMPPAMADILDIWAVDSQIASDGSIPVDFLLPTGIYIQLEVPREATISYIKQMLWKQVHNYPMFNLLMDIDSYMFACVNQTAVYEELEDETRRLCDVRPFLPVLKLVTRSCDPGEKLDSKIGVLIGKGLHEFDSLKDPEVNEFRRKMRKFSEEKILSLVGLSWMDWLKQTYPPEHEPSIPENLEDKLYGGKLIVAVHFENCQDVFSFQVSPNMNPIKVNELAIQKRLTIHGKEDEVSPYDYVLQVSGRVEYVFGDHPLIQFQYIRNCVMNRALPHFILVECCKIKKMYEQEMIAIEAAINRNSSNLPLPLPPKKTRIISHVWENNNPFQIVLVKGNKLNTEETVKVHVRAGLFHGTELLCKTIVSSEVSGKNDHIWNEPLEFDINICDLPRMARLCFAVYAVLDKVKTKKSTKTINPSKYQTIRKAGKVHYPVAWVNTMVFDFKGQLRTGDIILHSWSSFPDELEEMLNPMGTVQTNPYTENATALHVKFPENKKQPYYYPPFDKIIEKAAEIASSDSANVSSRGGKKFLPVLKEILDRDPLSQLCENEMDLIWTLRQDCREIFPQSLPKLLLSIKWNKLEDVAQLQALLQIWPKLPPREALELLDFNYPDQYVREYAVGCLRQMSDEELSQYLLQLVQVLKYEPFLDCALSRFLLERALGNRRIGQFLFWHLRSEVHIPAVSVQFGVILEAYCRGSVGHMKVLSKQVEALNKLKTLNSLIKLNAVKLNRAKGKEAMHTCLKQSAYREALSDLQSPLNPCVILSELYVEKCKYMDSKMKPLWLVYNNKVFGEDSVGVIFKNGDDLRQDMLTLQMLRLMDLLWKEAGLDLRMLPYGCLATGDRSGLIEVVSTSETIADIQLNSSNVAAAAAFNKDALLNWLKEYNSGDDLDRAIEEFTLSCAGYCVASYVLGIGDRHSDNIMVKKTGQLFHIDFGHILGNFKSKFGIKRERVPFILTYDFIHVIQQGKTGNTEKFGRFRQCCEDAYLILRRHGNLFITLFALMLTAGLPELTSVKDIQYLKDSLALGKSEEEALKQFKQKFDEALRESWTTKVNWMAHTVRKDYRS

[10] = biological target: Phosphatidylinositol 4,5-bisphosphate 3-kinase catalytic subunit gamma isoform (Homo sapiens, UniProt P48736); parameters: species or system Sf9
Phosphatidylinositol 4,5-bisphosphate 3-kinase catalytic subunit gamma isoform, sequence (P48736 whole entry, canonical isoform): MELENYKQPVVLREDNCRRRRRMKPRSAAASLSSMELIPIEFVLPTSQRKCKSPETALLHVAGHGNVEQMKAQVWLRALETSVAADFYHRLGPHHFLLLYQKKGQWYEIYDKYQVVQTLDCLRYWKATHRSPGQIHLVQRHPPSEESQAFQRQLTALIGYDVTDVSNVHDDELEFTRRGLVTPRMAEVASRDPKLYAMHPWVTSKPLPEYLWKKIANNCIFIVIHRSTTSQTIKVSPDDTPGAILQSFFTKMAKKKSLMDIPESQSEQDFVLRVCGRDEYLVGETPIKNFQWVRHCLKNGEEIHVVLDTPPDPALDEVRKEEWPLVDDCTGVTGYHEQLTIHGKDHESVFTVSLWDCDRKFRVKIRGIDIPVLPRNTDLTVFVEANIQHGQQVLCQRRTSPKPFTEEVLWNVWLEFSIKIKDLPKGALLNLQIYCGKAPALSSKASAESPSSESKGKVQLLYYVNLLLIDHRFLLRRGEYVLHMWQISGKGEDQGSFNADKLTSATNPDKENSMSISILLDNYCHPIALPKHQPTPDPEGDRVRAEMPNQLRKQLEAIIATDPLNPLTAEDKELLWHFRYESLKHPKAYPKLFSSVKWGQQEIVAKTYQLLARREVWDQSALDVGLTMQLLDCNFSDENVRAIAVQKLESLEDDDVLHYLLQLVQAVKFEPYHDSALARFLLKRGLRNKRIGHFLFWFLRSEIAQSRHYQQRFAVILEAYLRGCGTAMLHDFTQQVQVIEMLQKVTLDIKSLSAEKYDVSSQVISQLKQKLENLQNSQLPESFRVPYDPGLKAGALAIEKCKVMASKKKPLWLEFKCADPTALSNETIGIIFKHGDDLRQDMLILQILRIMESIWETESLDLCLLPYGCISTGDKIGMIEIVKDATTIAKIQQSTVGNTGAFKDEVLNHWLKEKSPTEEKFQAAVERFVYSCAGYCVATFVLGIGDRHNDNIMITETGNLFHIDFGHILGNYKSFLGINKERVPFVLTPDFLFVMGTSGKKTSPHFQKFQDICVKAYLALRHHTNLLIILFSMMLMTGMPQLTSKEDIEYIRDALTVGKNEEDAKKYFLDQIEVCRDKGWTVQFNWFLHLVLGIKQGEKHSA

Mus musculus [11] = organism: Mus musculus; assay: animal or person; conditions: CD1, po, 3 h, read-out: INH; remark: listed apart in the source
in vivo [12] = conditions: Sprague-Dawley, rat, iv, 1 mg/kg; remark: listed apart in the source
Description: (§3) Mean residence time in Sprague-Dawley rat at 1 mg/kg, iv

Mus musculus [13] = organism: Mus musculus; assay: animal or person; conditions: CD1, po, 3 h, read-out: INH; remark: listed apart in the source
Rattus norvegicus [14] = organism: Rattus norvegicus; conditions: in vivo, iv, 1 mg/kg
Description: Hepatic blood flow in Sprague-Dawley rat 1 mg/kg, iv

in vivo [15] = conditions: nude CD1, mouse, plasma, po, 0.3 mg/kg
Description: Plasma concentration in nude CD1 mouse at 0.3 mg/kg, po measured after 3 hrs

[16] = biological target: T1, Phosphatidylinositol 4,5-bisphosphate 3-kinase catalytic subunit delta isoform (Homo sapiens, UniProt O00329)
T1 sequence (O00329 whole entry): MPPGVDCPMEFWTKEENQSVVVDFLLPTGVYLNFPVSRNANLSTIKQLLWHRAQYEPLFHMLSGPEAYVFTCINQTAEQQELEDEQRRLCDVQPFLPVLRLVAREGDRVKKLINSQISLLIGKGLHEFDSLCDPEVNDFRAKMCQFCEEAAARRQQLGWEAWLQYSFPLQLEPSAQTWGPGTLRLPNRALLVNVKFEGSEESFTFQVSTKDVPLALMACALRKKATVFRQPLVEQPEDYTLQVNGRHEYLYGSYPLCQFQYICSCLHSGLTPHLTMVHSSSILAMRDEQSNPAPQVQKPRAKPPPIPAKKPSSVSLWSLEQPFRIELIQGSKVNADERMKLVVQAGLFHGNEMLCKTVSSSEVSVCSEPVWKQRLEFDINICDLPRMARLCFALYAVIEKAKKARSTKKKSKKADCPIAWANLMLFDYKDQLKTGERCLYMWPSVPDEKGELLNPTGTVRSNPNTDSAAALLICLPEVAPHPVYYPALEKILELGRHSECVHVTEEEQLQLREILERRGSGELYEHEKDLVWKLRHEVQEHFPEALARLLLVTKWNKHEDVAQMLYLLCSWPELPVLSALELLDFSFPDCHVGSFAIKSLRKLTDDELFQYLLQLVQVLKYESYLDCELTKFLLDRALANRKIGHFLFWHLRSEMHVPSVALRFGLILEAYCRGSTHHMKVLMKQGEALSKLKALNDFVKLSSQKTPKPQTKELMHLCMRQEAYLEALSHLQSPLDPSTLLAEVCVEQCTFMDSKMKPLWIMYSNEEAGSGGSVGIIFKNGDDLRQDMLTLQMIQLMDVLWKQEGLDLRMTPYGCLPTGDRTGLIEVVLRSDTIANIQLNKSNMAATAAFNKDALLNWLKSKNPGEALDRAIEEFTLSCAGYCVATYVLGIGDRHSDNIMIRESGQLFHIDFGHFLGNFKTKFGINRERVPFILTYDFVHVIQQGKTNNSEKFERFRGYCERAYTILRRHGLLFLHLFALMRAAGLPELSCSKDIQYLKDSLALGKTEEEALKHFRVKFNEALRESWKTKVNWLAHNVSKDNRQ

in vivo [17] = conditions: nude CD1, mouse, plasma, po, 3 mg/kg
Description: Plasma concentration in nude CD1 mouse at 3 mg/kg, po measured after 3 hrs

in vitro [18] = conditions: rat, liver microsomes
Description: Clearance in rat liver microsomes assessed as compound remaining at 1 uM after 30 mins

[19] = biological target: Serine/threonine-protein kinase mTOR (Homo sapiens, UniProt P42345)
Description: Inhibition of mTOR using GFP-tagged 4E-BP1 after 1 hr by spectrophotometric analysis

[20] = biological target: T2, Phosphatidylinositol 4,5-bisphosphate 3-kinase catalytic subunit alpha isoform (Homo sapiens, UniProt P42336)
T2 sequence (P42336 whole entry, canonical isoform): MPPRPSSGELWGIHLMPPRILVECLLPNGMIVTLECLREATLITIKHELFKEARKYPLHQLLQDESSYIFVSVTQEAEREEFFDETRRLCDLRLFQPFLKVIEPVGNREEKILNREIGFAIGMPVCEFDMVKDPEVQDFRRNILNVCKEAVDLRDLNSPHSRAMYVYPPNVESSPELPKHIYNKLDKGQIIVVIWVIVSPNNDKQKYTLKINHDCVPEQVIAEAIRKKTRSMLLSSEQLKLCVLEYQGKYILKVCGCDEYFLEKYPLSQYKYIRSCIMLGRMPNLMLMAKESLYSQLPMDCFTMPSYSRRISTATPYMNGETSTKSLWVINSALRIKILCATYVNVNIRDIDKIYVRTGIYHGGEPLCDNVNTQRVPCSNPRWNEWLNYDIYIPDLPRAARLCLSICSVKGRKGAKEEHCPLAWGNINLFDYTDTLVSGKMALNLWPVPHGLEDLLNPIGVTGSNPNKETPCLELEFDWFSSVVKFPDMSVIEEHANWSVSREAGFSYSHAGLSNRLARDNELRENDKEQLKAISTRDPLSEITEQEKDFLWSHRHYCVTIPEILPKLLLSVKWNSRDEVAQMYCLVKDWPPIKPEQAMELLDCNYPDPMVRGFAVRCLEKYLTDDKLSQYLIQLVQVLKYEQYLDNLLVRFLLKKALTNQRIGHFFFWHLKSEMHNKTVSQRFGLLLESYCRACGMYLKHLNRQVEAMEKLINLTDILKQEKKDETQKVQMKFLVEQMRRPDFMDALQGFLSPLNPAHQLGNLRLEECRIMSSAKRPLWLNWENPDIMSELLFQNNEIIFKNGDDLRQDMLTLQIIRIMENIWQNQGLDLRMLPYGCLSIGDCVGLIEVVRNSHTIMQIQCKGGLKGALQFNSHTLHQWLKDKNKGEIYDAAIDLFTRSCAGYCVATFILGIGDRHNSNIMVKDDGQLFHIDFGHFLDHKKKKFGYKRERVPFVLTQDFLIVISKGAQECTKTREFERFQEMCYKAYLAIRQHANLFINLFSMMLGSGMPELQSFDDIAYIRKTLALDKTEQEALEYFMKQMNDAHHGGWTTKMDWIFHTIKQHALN

[21] = biological target: T2, Phosphatidylinositol 4,5-bisphosphate 3-kinase catalytic subunit alpha isoform; remark: listed apart in the source
Rattus norvegicus [22] = organism: Rattus norvegicus; conditions: in vivo, iv, 1 mg/kg; remark: listed apart in the source
Description: as §2

Rattus norvegicus [23] = organism: Rattus norvegicus; conditions: in vivo, iv, 1 mg/kg; remark: listed apart in the source
Description: as §3

Rattus norvegicus [24] = organism: Rattus norvegicus; conditions: in vivo, iv, 1 mg/kg; remark: listed apart in the source
Description: as §1

Mus musculus [25] = assay: Inhibition of PI3K-induced Akt phosphorylation at Ser 473 in HGF-stimulated nude CD1 mouse at 0.3 mg/kg, po measured after 4 hrs by quantitative electrochemiluminescence immunoassay; assay type: functional; conditions: CD1, 4 h
[26] = Plasma concentration in nude CD1 mouse at 1 mg/kg, po measured after 4 hrs; assay type: ADME, organism-based; parameters: dose 1 mg/kg, route oral
Mus musculus [27] = assay: Inhibition of PI3K-induced Akt phosphorylation at Ser 473 in HGF-stimulated nude CD1 mouse at 3 mg/kg, po measured after 4 hrs by quantitative electrochemiluminescence immunoassay; assay type: functional; conditions: CD1, 4 h
[28] = Plasma concentration in nude CD1 mouse at 0.3 mg/kg, po measured after 4 hrs; assay type: ADME, organism-based; parameters: dose 0.3 mg/kg, route oral
Mus musculus [29] = assay: Inhibition of PI3K-induced Akt phosphorylation at Ser 473 in HGF-stimulated nude CD1 mouse at 1 mg/kg, po measured after 4 hrs by quantitative electrochemiluminescence immunoassay; assay type: functional; conditions: CD1, 4 h
[30] = Plasma concentration in nude CD1 mouse at 3 mg/kg, po measured after 4 hrs; assay type: ADME, organism-based; parameters: dose 3 mg/kg, route oral
[31] = biological target: DNA-dependent protein kinase catalytic subunit (Homo sapiens, UniProt P78527)
Description: Inhibition of DNA-PK using fluorescein-p53 peptide as substrate after 1 hr by TR-FRET enzyme assay

| Compound | AUC [1] [ng·h/mL] | Vd (in vivo [3]) [L/kg] | clearance (in vivo [6]) [mL/min/kg] | bioavailability [7] [%] | microsomal CLint at 0.5 h, 1 µM (in vitro [8]) [µL/min/mg] | IC50 [10] [nM] | MRT (in vivo [12]) [h] | QH (Rattus norvegicus [14]) [%] | IC50 [16] [nM] | microsomal CLint at 0.5 h, 1 µM (in vitro [18]) [µL/min/mg] | IC50 [20] [nM] | Ki [21] [nM] | also measured |
| --- | --- | --- | --- | --- | --- | --- | --- | --- | --- | --- | --- | --- | --- |
| O=S(=O)(Nc1cc(-c2ccc3nccc(-c4cccnc4)c3c2)cnc1Cl)c1ccc(F)cc1 | 5630 | 0.81 | 2.17 | 73 | < 14 | 7.7 | 6.3 | 0.6 | 5.9 | 33 | – | – | inhibition in vivo at 1 mg/kg (Mus musculus [2]): 97%; IC50 [4]: 2.9 nM; concentration at 3 h (in vivo [5]): 899 ng/mL; IC50 [9]: 10 nM; inhibition in vivo at 3 mg/kg (Mus musculus [11]): 99%; inhibition in vivo at 0.3 mg/kg (Mus musculus [13]): 70%; concentration at 3 h (in vivo [15]): 210 ng/mL; concentration at 3 h (in vivo [17]): 2330 ng/mL |
| O=S(=O)(Nc1cc(-c2ccc3nccc(-c4ccncc4)c3c2)cnc1Cl)c1ccc(F)cc1 | 14700 | 0.52 | 0.667 | 70 | < 14 | 13 | 15 | 0.6 | 6 | 20 | – | – | inhibition in vivo at 1 mg/kg (Mus musculus [2]): 98%; IC50 [4]: 5.3 nM; concentration at 3 h (in vivo [5]): 950 ng/mL; IC50 [9]: 15 nM; IC50 [19]: 0.41 nM; inhibition in vivo at 3 mg/kg (Mus musculus [11]): > 99%; inhibition in vivo at 0.3 mg/kg (Mus musculus [13]): 89%; concentration at 3 h (in vivo [15]): 326 ng/mL; concentration at 3 h (in vivo [17]): 2470 ng/mL |
| CN(C)c1ccc(-c2ccnc3ccc(-c4cnc(Cl)c(NS(=O)(=O)c5ccc(F)cc5)c4)cc23)cc1 | – | – | – | – | – | – | – | – | – | – | 61 | 0.7 | – |
| O=S(=O)(Nc1cc(-c2ccc3ncc(NCC4CCCNC4)nc3c2)cnc1Cl)c1ccc(F)cc1 (stereo unspecified) | – | – | – | – | – | – | – | – | – | – | 2710 | 3.3 | – |
| O=S(=O)(Nc1cc(-c2ccc3ncc(NCCN4CCCCC4)nc3c2)cnc1Cl)c1ccc(F)cc1 | 271 | – | – | 16 | 25 | – | – | 0.6 | – | < 14 | – | – | CL (Rattus norvegicus [22]): 9.83 mL/min/kg; MRT (Rattus norvegicus [23]): 2.1 h; Vdss (Rattus norvegicus [24]): 0.19 L/kg |
| O=S(=O)(Nc1cc(-c2ccc3ncc(NCCN4CCOCC4)nc3c2)cnc1Cl)c1ccc(F)cc1 | – | – | – | – | – | 16 | – | – | 6 | – | – | – | IC50 [9]: 9.8 nM |
| O=S(=O)(Nc1cc(-c2ccc3ncc(N4CCCCC4)nc3c2)cnc1Cl)c1ccc(F)cc1 | – | – | – | – | – | – | – | – | – | – | 128 | 0.9 | – |
| O=S(=O)(Nc1cc(-c2ccc3ncc(N4CCC(F)(F)CC4)nc3c2)cnc1Cl)c1ccc(F)cc1 | – | – | – | – | – | – | – | – | – | – | 189 | 0.6 | – |
| O=S(=O)(Nc1cc(-c2ccc3ncc(N4C[C@H]5CC[C@H](CC5)C4)nc3c2)cnc1Cl)c1ccc(F)cc1 | – | – | – | – | – | – | – | – | – | – | 247 | 1 | – |
| CC(C)N1CCN(c2cnc3ccc(-c4cnc(Cl)c(NS(=O)(=O)c5ccc(F)cc5)c4)cc3n2)CC1 | 10800 | 0.4 | 1.33 | 72 | 31 | 13 | 5.4 | 0.6 | 5.6 | 32 | 17 | 0.8 | inhibition in vivo at 0.3 mg/kg (Mus musculus [25]): 50%; concentration at 4 h [26]: 417 ng/mL; IC50 [19]: 37 nM; inhibition in vivo at 3 mg/kg (Mus musculus [27]): 95%; concentration at 4 h [28]: 155 ng/mL; inhibition in vivo at 1 mg/kg (Mus musculus [29]): 86%; concentration at 4 h [30]: 1790 ng/mL |
| O=S(=O)(Nc1cc(-c2ccc3ncc(N4CCOCC4)nc3c2)cnc1Cl)c1ccc(F)cc1 | 29600 | 0.19 | 0.333 | 88 | < 14 | 2.4 | 9 | 0.6 | 4.4 | 16 | – | – | inhibition in vivo at 0.3 mg/kg (Mus musculus [25]): 55%; IC50 [4]: 5 nM; concentration at 4 h [26]: 1730 ng/mL; IC50 [19]: 5 nM; inhibition in vivo at 3 mg/kg (Mus musculus [27]): 97%; concentration at 4 h [28]: 448 ng/mL; inhibition in vivo at 1 mg/kg (Mus musculus [29]): 86%; IC50 [31]: 3.4 nM; concentration at 4 h [30]: 4470 ng/mL |
